pKi: −log10 of the molar value. “And” between values parts separate entries of the source, which are not always exact repeats. Equal entries are not always repeated.
assay: Binding affinity was determined in a crude membrane preparation from guinea pig brain by displacement of [3H]DPDPE from Opioid receptor delta 1

SMILES	pKi
O=C1C(=Cc2c3ccccc3cc3ccccc23)C[C@@]2(O)[C@H]3Cc4ccc(O)c5c4C2(CCN3CC2CC2)[C@H]1O5	8.62 and 7.77
O=C1C(=Cc2ccc(-c3ccccc3)cc2)C[C@@]2(O)[C@H]3Cc4ccc(O)c5c4C2(CCN3CC2CC2)[C@H]1O5	7.12 and 7.33
O=C1/C(=C\c2ccccc2)C[C@@]2(O)[C@H]3Cc4ccc(O)c5c4[C@@]2(CCN3CC2CC2)[C@H]1O5	8.43
O=C1C(=Cc2cccc3ccccc23)C[C@@]2(O)[C@H]3Cc4ccc(O)c5c4C2(CCN3CC2CC2)[C@H]1O5 [4-cyclopropylmethyl-10,17-dihydroxy-15-[1-(1-naphthyl)-(Z)-methylidene]-(5R,13R,17S)-12-oxa-4-azapentacyclo[9.6.1.01,13.05,17.07,18]octadeca-7(18),8,10-trien-14-one]	8.34 and 9.15
O=C1C(=Cc2ccc3ccccc3c2)C[C@@]2(O)[C@H]3Cc4ccc(O)c5c4C2(CCN3CC2CC2)[C@H]1O5 [4-cyclopropylmethyl-10,17-dihydroxy-15-[1-(2-naphthyl)-(E)-methylidene]-(5R,13R,17S)-12-oxa-4-azapentacyclo[9.6.1.01,13.05,17.07,18]octadeca-7(18),8,10-trien-14-one]	7.41
O=C1/C(=C/c2ccccc2)C[C@@]2(O)[C@H]3Cc4ccc(O)c5c4[C@@]2(CCN3CC2CC2)[C@H]1O5 [7-Benzylidenenaltrexone]	8.21
